{"source": "patent US20070117743A1", "about": "“New antitumoral compounds” (priority 2003, published 2007)", "type_in_all_cases": "cell-based, human", "details_in_all_cases": "48 hours exposure", "key": {"K-562": {"test_system": "K-562", "assay": "SRB colorimetric assay of cell growth and viability, K-562"}, "SK-MEL-28": {"test_system": "SK-MEL-28", "assay": "SRB colorimetric assay of cell growth and viability, SK-MEL-28"}, "PANC-1": {"test_system": "PANC-1", "assay": "SRB colorimetric assay of cell growth and viability, PANC-1"}, "A-549": {"test_system": "A-549", "assay": "SRB colorimetric assay of cell growth and viability, A-549"}, "HT-29": {"test_system": "HT-29", "assay": "SRB colorimetric assay of cell growth and viability, HT-29"}, "LoVo-Dox": {"test_system": "LoVo-Dox", "assay": "SRB colorimetric assay of cell growth and viability, LoVo-Dox", "procedure,_shortened": "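Sulforhodamine B assay run after 48 h of continuous drug contact; cells seeded 5×10^3/well in RPMI 1640 10% FBS, attached 18 h. Triplicate OD490 values give cytostatic (TGI), cytotoxic (LC) and GI parameters.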"}, "IGROV-ET": {"test_system": "IGROV-ET", "assay": "SRB colorimetric assay of cell growth and viability, IGROV-ET"}, "SK-BR-3": {"test_system": "SK-BR-3", "assay": "SRB colorimetric assay of cell growth and viability, SK-BR-3"}, "LNCaP": {"test_system": "LNCaP", "assay": "SRB colorimetric assay of cell growth and viability, LNCaP"}, "IGROV-1": {"test_system": "IGROV-1", "assay": "SRB colorimetric assay of cell growth and viability, IGROV-1"}, "HeLa-APL": {"test_system": "HeLa-APL", "assay": "SRB colorimetric assay of cell growth and viability, HeLa-APL"}, "LoVo": {"test_system": "LoVo", "assay": "SRB colorimetric assay of cell growth and viability, LoVo"}, "DU-145": {"test_system": "DU-145", "assay": "SRB colorimetric assay of cell growth and viability, DU-145"}, "HeLa": {"test_system": "HeLa", "assay": "SRB colorimetric assay of cell growth and viability, HeLa"}}, "data": [{"smiles": "C/C=C1\\NC(=O)[C@H](Cc2ccccc2)NC(=O)[C@@H](C(C)C)NC(=O)[C@@H]([C@@H](C)CC)NC(=O)[C@H](NC(=O)[C@H](NC(=O)[C@H](CCCN)NC(=O)[C@H]2CCCN2C(=O)[C@H](NC(=O)[C@@H](NC(=O)[C@@H](NC(=O)[C@H](NC(=O)CC[C@H](C)CC)C(C)C)[C@@H](C)O)C(C)C)C(C)C)[C@@H](C)CC)[C@@H](C)OC(=O)[C@H](C(C)C)NC1=O", "note": "[Compound 16, [(4R)-MeHex^14]-KF]", "values": [{"measurement": "GI50", "setting": "K-562", "result": 3730, "unit": "nM"}, {"measurement": "TGI K-562", "setting": "K-562", "result": "6.77E−06", "unit": "Molar"}, {"measurement": "CC50", "setting": "K-562; read-out: LC50 K-562", "result": "≥ 6770", "unit": "nM"}, {"measurement": "GI50", "setting": "SK-MEL-28", "result": 1140, "unit": "nM"}, {"measurement": "TGI MEL-28", "setting": "SK-MEL-28", "result": "2.09E−06", "unit": "Molar"}, {"measurement": "CC50", "setting": "SK-MEL-28; read-out: LC50 MEL-28", "result": 3800, "unit": "nM"}, {"measurement": "GI50", "setting": "PANC-1", "result": 4700, "unit": "nM"}, {"measurement": "TGI PANC-1", "setting": "PANC-1", "result": "4.24E−06", "unit": "Molar"}, {"measurement": "CC50", "setting": "PANC-1; read-out: LC50 PANC-1", "result": 4240, "unit": "nM"}, {"measurement": "TGI A-549", "setting": "A-549", "result": "2.26E−06", "unit": "Molar"}, {"measurement": "GI50", "setting": "A-549; read-out: GI50 A-549", "result": 1200, "unit": "nM"}, {"measurement": "CC50", "setting": "A-549; read-out: LC50 A-549", "result": 4240, "unit": "nM"}, {"measurement": "TGI HT-29", "setting": "HT-29", "result": "1.54E−06", "unit": "Molar"}, {"measurement": "GI50", "setting": "HT-29; read-out: GI50 HT-29", "result": 738, "unit": "nM"}, {"measurement": "CC50", "setting": "HT-29; read-out: LC50 HT-29", "result": 3220, "unit": "nM"}, {"measurement": "GI50", "setting": "LoVo-Dox", "result": 288, "unit": "nM"}, {"measurement": "TGI LOVO-DOX", "setting": "LoVo-Dox", "result": "7.71E−07", "unit": "Molar"}, {"measurement": "CC50", "setting": "LoVo-Dox; read-out: LC50 LOVO-DOX", "result": 2190, "unit": "nM"}, {"measurement": "GI50", "setting": "IGROV-ET", "result": 805, "unit": "nM"}, {"measurement": "TGI IGROV-ET", "setting": "IGROV-ET", "result": "1.62E−06", "unit": "Molar"}, {"measurement": "CC50", "setting": "IGROV-ET; read-out: LC50 IGROV-ET", "result": 3260, "unit": "nM"}, {"measurement": "GI50", "setting": "SK-BR-3", "result": 1250, "unit": "nM"}, {"measurement": "LC50", "setting": "SK-BR-3", "result": 3860, "unit": "nM"}, {"measurement": "TGI SK-BR-3", "setting": "SK-BR-3", "result": "2.20E−06", "unit": "Molar"}, {"measurement": "TGI LN-caP", "setting": "LNCaP", "result": "2.46E−06", "unit": "Molar"}, {"measurement": "GI50", "setting": "LNCaP; read-out: GI50 LN-caP", "result": 1500, "unit": "nM"}, {"measurement": "CC50", "setting": "LNCaP; read-out: LC50 LN-caP", "result": 4040, "unit": "nM"}, {"measurement": "GI50", "setting": "IGROV-1", "result": 941, "unit": "nM"}, {"measurement": "LC50 (concentration causing 50% net cell killing)", "setting": "IGROV-1", "result": 3500, "unit": "nM"}, {"measurement": "TGI IGROV", "setting": "IGROV-1", "result": "1.81E−06", "unit": "Molar"}, {"measurement": "GI50", "setting": "HeLa-APL", "result": 1560, "unit": "nM"}, {"measurement": "TGI HELA-APL", "setting": "HeLa-APL", "result": "3.47E−06", "unit": "Molar"}, {"measurement": "CC50", "setting": "HeLa-APL; read-out: LC50 HELA-APL", "result": "≥ 6770", "unit": "nM"}, {"measurement": "GI50", "setting": "LoVo", "result": 248, "unit": "nM"}, {"measurement": "TGI LOVO", "setting": "LoVo", "result": "7.78E−07", "unit": "Molar"}, {"measurement": "CC50", "setting": "LoVo; read-out: LC50 LOVO", "result": 2280, "unit": "nM"}, {"measurement": "GI50", "setting": "DU-145", "result": 1200, "unit": "nM"}, {"measurement": "LC50 (concentration causing 50% net cell kill)", "setting": "DU-145", "result": 3820, "unit": "nM"}, {"measurement": "TGI DU-145", "setting": "DU-145", "result": "2.14E−06", "unit": "Molar"}, {"measurement": "GI50", "setting": "HeLa", "result": 1050, "unit": "nM"}, {"measurement": "TGI HELA", "setting": "HeLa", "result": "1.93E−06", "unit": "Molar"}, {"measurement": "CC50", "setting": "HeLa; read-out: LC50 HELA", "result": 3550, "unit": "nM"}]}]}
